Literature values as cited in US20120034276A1, “SOLID PREPARATION” (ASKA Pharmaceutical Co., Ltd., priority 2009, published 2012).
Residues, ends and D or L forms follow the SMILES beside them.

Conditions: numeral in parenthesis, for reference; first or second dissociation step

| acid dissociation constant pKa | SMILES |
| --- | --- |
| 2.90 | NCC(=O)NCC(=O)NCC(=O)N[C@@H](Cc1c[nH]cn1)C(=O)O [glycylglycylglycyl-L-histidine] (H-GGGH-OH) |
| 3.18 | C[C@H](NC(=O)CNC(=O)CN)C(=O)O [glycylglycyl-L-alanine] |
| 3.18 | C[C@H](N)C(=O)NCC(=O)NCC(=O)NCC(=O)O [L-alanylglycylglycylglycine] (H-AGGG-OH) |
| 4.00 | O=C(O)CCC(=O)O [succinic acid] |
| 1.93 | N[C@@H](CC(=O)O)C(=O)O [aspartic acid] |
| 2.08 | CN(C)CC(=O)O [N,N-dimethylglycine] |
| 3.18 | O=CC(=O)O [glyoxylic acid] |
| 3.26 | NCC(=O)NC(Cc1c[nH]cn1)C(=O)NCC(=O)O (racemic) [glycyl-DL-histidylglycine] |
| 2.15 | CSCC[C@H](N)C(=O)O [methionine] |
| 2.09 | O=C(O)c1cccc(C(=O)O)n1 [2,6-pyridinedicarboxylic acid] |
| 3.24 | O=C(O)CC(O)C(=O)O (centres unmarked) [malic acid] |
| 2.21 | C[C@@H](O)[C@H](N)C(=O)O [threonine] |
| 2.43 | NC(=O)NCCC[C@H](N)C(=O)O [citrulline] |
| 2.84 | N[C@@H](Cc1c[nH]cn1)C(=O)NCC(=O)O [L-histidylglycine] (H-His-Gly-OH) |
| 2.18 | N[C@@H](CCC(=O)O)C(=O)O [glutamic acid] |
| 2.13 | N[C@@H](CO)C(=O)O [serine] |
| 2.82-2.99 | O=C(O)C(O)C(O)C(=O)O (centres unmarked) [tartaric acid] |
| 2.26 | N[C@@H](Cc1ccccc1)C(=O)O [phenylalanine] |
| 3.20 | C[C@H](N)C(=O)N[C@@H](C)C(=O)O [L-alanyl-L-alanine] (H-Ala-Ala-OH) |
| 2.30 | C[C@H](N)C(=O)O [alanine] |
| 3.07 | C[C@H](NC(=O)CN)C(=O)O [glycyl-L-alanine] (H-Gly-Ala-OH) |
| 3.63 | O=C(O)CO [glycolic acid] |

Further lines, the molecule ahead of its results:

| SMILES | acid dissociation constant pKa |
| --- | --- |
| NCCCC[C@H](N)C(=O)O [lysine] | 2.04 |
| O=C(O)[C@H](O)[C@@H](O)[C@H](O)[C@H](O)CO [gluconic acid] | 3.86 |
| CC(=O)C(=O)O [pyruvic acid] | 2.26 |
| N=C(N)NCCC[C@H](N)C(=O)O [arginine] | 2.05 |
| CC(C)[C@H](N)C(=O)O [valine] | 2.26 |
| O=C(O)CC(O)(CC(=O)O)C(=O)O [citric acid] | 2.87 |
| CC(O)C(=O)O (centres unmarked) [lactic acid] | 3.66 |
| CCCC[C@H](N)C(=O)O [norleucine] | 2.30 |
| NCC(=O)N[C@@H](Cc1c[nH]cn1)C(=O)O [glycyl-L-histidine] (H-Gly-His-OH) | 2.54 |
| O=[PH](O)O [phosphonic acid] | 1.5 |
| NCC(=O)NCC(=O)N[C@@H](Cc1c[nH]cn1)C(=O)O [glycylglycyl-L-histidine] (H-Gly-Gly-His-OH) | 2.72 |
| C[C@H](N)C(=O)NCC(=O)O [L-alanylglycine] (H-Ala-Gly-OH) | 3.10 |
| Nc1ccc(C(=O)O)cc1 [aminobenzoic acid] | 2.02-3.12 |
| CNCC(=O)O [N-methylglycine] | 2.20 |
| N[C@@H](Cc1c[nH]c2ccccc12)C(=O)O [tryptophan] | 2.35 |
